The source of these data is patent publication US9290777B2, “Putative cytokinin receptor and methods for use thereof” (NATIONAL UNIVERSITY OF SINGAPORE, priority 2007, dated 2016).

In one experiment the target is T1, purified TAP-HOG1 (Arabidopsis thaliana, UniProt O23255).
T1 construct: Protein A (ProtA part of the TAP tag, TEV site between ProtA and CBP) (N, cleaved yes); made in house; host or cells: transgenic Arabidopsis thaliana harbouring 35S:TAP-HOG1
Put plainly: biochemical. In kind it is binding. Conditions: ITC, ligand injected into purified TAP-HOG1; KD = 1/KA; read-out: KD (dissociation constant). As for the experimental part: Cytokinin binding affinity and thermodynamic analysis of the interaction between HOG1 and cytokinins was examined by ITC (MCSITC, Microcal, Northampton, USA). Three naturally occurring cytokinins (zeatin, benzyladenine and isopentenyl adenine) and thidiazuron (an urea-derived synthetic cytokinin) were used. Additionally, adenosine and NAD were used as control molecules to verify the binding specificity of HOG1 to cytokinins. Data were analyzed by MICROCAL ORIGIN version 2.9 using the best-fit, nonlinear least-squares method for one binding site. The binding stoichiometry (n), and association constant (KA) were calculated from the fitted curves. Subsequently, KD was calculated as 1/KA. Raw heat data were corrected to baseline drift obtained from injections of 0.1 μM purified AHP1 into the sample cell containing 2 μM purified TAP-HOG1. Binding isotherms were created by plotting the heat peak areas against the molar ratio of AHP1 added to HOG1.
Cytokinin binding affinity and thermodynamic analysis of the interaction between HOG1 and cytokinins was examined by ITC (MCSITC, Microcal, Northampton, USA). TAP-HOG1 fusion protein was purified using published protocols (Forler et al. supra) from transgenic Arabidopsis plants harboring the 35S:TAP-HOG1 construct. 0.01 μM benzyladenine (a naturally occurring cytokinin) and 0.1 μM of purified TAP-HOG1 protein were used for each ITC assay with 25 injections (each injection of 2 μl at […] intervals at 37° C.). Data were analyzed with MICROCAL ORIGIN version 2.9 using the best-fit, nonlinear least-squares method for one binding site. The binding stoichiometry (n), and association constant (KA) were calculated from the fitted curves. Subsequently, KD was calculated as 1/KA.

A further experiment concerns ARR1 and ARR2. Briefly: qRT-PCR of type-B ARRs after BA treatment. The format is cell-based, Arabidopsis thaliana. Conditions: transgenic lines. As for the experimental part:
For quantitative real-time PCR (qRT-PCR) analysis of cytokinin-inducible gene expression, seeds were germinated on MS medium with 3% (w/v) sucrose and grown for 6 days. Cytokinin treatment was carried out by incubating seedlings in the same MS+sucrose liquid medium (no agar) supplemented with 0, 0.01, 0.1, 1 or 5 μM [solubilized in 0.1% dimethylsulfoxide (DMSO) and diluted with the MS medium] for 5 min, 15 min, 30 min or 1 h. The control seedlings were incubated with DMSO (0.1%, the concentration used to dissolve cytokinins for the treatment) for the corresponding durations and used for expression analysis. Before RNA preparation, WT, OE and AS seedlings were pooled and stored in RNAlater solution (Qiagen, Valencia, Calif.). Total RNA was extracted using the Rneasy Plant Mini Kit (Qiagen). SYBRgreen RT-PCR reagents (Applied Biosystems) were used to synthesize double-stranded cDNA. The number of transcripts present in biological replicates each of WT, OE and AS seedlings, with or without BA and DMSO, was determined from three independent replicates. Fold induction of the transcripts was calculated according to the manufacturer's instructions (ABI Prism 7700 Sequence Detection System, User Bulletin #2).
(Real-time PCR tracks product formation cycle by cycle.)

T1 sequence (O23255 other isoform, or with tags, fused parts or gaps with the stated changes): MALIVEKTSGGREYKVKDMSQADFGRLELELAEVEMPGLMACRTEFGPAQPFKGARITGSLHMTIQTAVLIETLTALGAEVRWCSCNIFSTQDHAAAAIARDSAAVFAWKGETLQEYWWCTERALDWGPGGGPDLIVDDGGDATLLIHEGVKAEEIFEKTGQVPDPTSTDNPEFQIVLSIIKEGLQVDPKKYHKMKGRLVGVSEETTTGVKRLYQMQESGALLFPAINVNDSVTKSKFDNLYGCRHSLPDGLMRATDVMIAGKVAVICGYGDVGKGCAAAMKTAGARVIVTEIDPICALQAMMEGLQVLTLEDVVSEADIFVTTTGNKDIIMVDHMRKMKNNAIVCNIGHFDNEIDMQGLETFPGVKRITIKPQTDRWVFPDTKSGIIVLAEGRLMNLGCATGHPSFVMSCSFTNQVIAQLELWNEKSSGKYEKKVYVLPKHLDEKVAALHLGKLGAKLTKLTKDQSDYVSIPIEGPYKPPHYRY

What is called Kd is the free concentration of one partner at which half of the binding sites on the other are occupied at equilibrium, for simple one-to-one binding. Take `c1ccc(CNc2ncnc3nc[nH]c23)cc1` [benzyladenine]: the dissociation constant (Kd) on purified TAP-HOG1 was determined as 20.6 nM. Moreover, the “ARR1 and ARR2 transcript levels” value with ARR1 and ARR2 is recorded as “not significantly affected”.
